These results are taken from patent US7998978B2 (Pfizer Inc., priority 2006, dated 2011).

Usually inhibition stands for how much of the control response was suppressed. The Ki is a measure of affinity in units of concentration, obtained from inhibition or displacement. A low value points to higher affinity.

For the first experiment, the target named is T1, JNK1α1 (Homo sapiens, UniProt P45983).
T1 construct: catalytic domain containing amino acids 1-364 and N-terminal hexahistidine tag; hexahistidine (His6) (N); made in house; host or cells: E. coli BL21 (DE3)
T1 sequence (P45983 1-364): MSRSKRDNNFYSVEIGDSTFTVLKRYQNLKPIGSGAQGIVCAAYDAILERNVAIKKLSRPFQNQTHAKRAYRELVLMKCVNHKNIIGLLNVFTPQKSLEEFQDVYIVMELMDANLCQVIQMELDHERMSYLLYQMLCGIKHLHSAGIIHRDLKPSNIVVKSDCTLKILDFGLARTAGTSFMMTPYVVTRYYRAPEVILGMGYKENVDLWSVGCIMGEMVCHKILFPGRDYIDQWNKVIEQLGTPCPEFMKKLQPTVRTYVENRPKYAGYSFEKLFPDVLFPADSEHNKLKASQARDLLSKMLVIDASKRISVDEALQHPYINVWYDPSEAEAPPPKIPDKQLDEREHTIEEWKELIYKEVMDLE
Briefly: Coupled spectrophotometric (PK/LDH) JNK1α1 assay: % inhibition and Ki determination. It is filed as biochemical. The settings on record: @1 uM; read-out: % Inhibition JNK-1. Summed up: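 Initial rates were taken from the absorbance decrease at 340 nm at 30° C. Ki was fitted with a tight-binding model over 11 concentrations (top 100 μM); single-point inhibition was tested at 1 or 10 μM.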
Take `O=C(NC1CCCOC1)c1cccc2cnc(N[C@H]3CC[C@H](O)CC3)nc12` (stereo partly drawn) [Example 488, 2-[(trans-4-hydroxycyclohexyl)amino]-N-(tetrahydro-2H-pyran-3-yl)quinazoline-8-carboxamide]: the inhibition at 1 µM is 40%.
The same measure, in the same setting: the value for `CC(CN1CCOCC1)Oc1ccc2cnc(N[C@H]3CC[C@H](O)CC3)nc2c1` (stereo partly drawn) [Example 274, trans-4-{[7-(1-methyl-2-morpholin-4-ylethoxy)quinazolin-2-yl]amino}cyclohexanol] was 25%.
`O=C(NCCn1ccnc1)c1cccc2cnc(N[C@H]3CC[C@H](O)CC3)nc12` [Example 491, 2-[(trans-4-hydroxycycbohexyl)amino]-N-[2-(1H-imidazol-1-yl)ethyl]quinazoline-8-carboxamide]: the inhibition at 1 µM was determined as 13%.
`CCN1CC(CNC(=O)c2cccc3cnc(N[C@H]4CC[C@H](O)CC4)nc23)CC1=O` (stereo partly drawn) [Example 508, N-[(1-ethyl-5-oxopyrrolidin-3-yl)methyl]-2-[(trans-4-hydroxycyclohexyl)amino]quinazoline-8-carboxamide]: the inhibition at 1 µM came to 21%.
The same measure, in the same setting: the figure for `Cc1ccn(CCNC(=O)c2cccc3cnc(N[C@H]4CC[C@H](O)CC4)nc23)n1` [Example 498, 2-[(trans-4-hydroxycyclohexyl)amino]-N-[2-(3-methyl-1H-pyrazol-1-yl)ethyl]quinazoline-8-carboxamide] is 11%.
Consider `O=C(NCc1ccncc1)c1cccc2cnc(N[C@H]3CC[C@H](O)CC3)nc12` [Example 473, 2-[(trans-4-hydroxycyclohexyl)amino]-N-(pyridin-4-ylmethyl)quinazoline-8-carboxamide], for which the inhibition at 1 µM amounted to 34%.
Turning to `O=C(N[C@@H]1COC[C@H]1O)c1ccc2cnc(NC3CCC3)nc2c1` [Example 433, 2-(cyclobutylamino)-N-[(3R,4S)-4-hydroxytetrahydrofuran-3-yl]quinazoline-7-carboxamide], the inhibition at 1 µM is 24%.

The experiment is the same for the next values; noted with them: @10 uM; read-out: % Inhibition JNK-1.
For `CN1CCC[C@H]1COc1cccc2cnc(N[C@H]3CC[C@H](O)CC3)nc12` [Example 257, trans-4-[(8-{[(2S)-1-methylpyrrolidin-2-yl]methoxy}quinazolin-2-yl)amino]cyclohexanol], the inhibition at 10 µM was determined as 62%.
For the compound `CN1CCCCC1COc1cccc2cnc(N[C@H]3CC[C@H](O)CC3)nc12` (stereo partly drawn) [Example 252, trans-4-({8-[(1-methylpiperidin-2-yl)methoxy]quinazolin-2-yl}amino)cyclohexanol], the inhibition at 10 µM stood at 59%.

Still in this experiment, the particulars now being: JNK-1.
`Cc1cc(OCCN(C)C)ccc1-c1cccc2cnc(N[C@H]3CC[C@H](O)CC3)nc12` [Example 203, trans-4-[(8-{4-[2-(dimethylamino)ethoxy]-2-methylphenyl}quinazolin-2-yl)amino] cyclohexanol]: the affinity corresponds to a Ki of 815 nM.
The same measure, in the same setting: the value for `O[C@H]1CC[C@H](Nc2ncc3cccc(OC4CCC(F)(F)CC4)c3n2)CC1` [Example 239, trans-4-({8-[(4,4-difluorocyclohexyl)oxy]quinazolin-2-yl}amino)cyclohexanol] was 67 nM; that for `Cc1ccc2cnc(N[C@H]3CC[C@H](O)CC3)nc2c1OCC(=O)NC1CCOCC1` [Example 210, 2-({2-[(trans-4-hydroxycyclohexyl)amino]-7-methylquinazolin-8-yl}oxy)-N-(tetrahydro-2H-pyran-4-yl)acetamide] was 1710 nM.
Consider `CC[C@H](CO)NC(=O)c1cccc2cnc(N[C@H]3CC[C@H](O)CC3)nc12` [Example 458, 2-[(trans-4-hydroxycyclohexyl)amino]-N-[(1R)-1-(hydroxymethyl)propyl]quinazoline-8-carboxamide], for which the Ki was found to be 374 nM.
The same measure, in the same setting: the figure for `O[C@H]1CC[C@H](Nc2ncc3ccc(OCC4CCOCC4)cc3n2)CC1` [Example 158, trans-4-{[7-(tetrahydro-2H-pyran-4-ylmethoxy)quinazolin-2-yl]amino}cyclohexanol] is 201 nM.
In turn, `Cn1cncc1CNC(=O)c1cccc2cnc(N[C@H]3CC[C@H](O)CC3)nc12` [Example 465, 2-[(trans-4-hydroxycyclohexyl)amino]-N-[(1-methyl-1H-imidazol-5-yl)methyl]quinazoline-8-carboxamide] returned an inhibitory constant (Ki) of 782 nM.
Still for that read-out and setting: the figure for `COc1ccccc1C(CO)NC(=O)c1ccc2cnc(N[C@H]3CC[C@H](O)CC3)nc2c1` (stereo partly drawn) [Example 97, 2-[(trans-4-hydroxycyclohexyl)amino]-N-[2-hydroxy-1-(2-methoxyphenyl)ethyl]quinazoline-7-carboxamide] is 55 nM; for `O=C(NCC1(O)CCC1)c1ccc2cnc(N[C@H]3CC[C@H](O)CC3)nc2c1` [Example 341, N-[(1-hydroxycyclobutyl)methyl]-2-[(trans-4-hydroxycyclohexyl)amino]quinazoline-7-carboxamide] it is 836 nM; for `O=C(COc1cccc(-c2cnccn2)c1)Nc1cc2cc(-c3cn[nH]c3)ccc2cn1` [Example 32, 2-(3-pyrazin-2-ylphenoxy)-N-[6-(1H-pyrazol-4-yl)isoquinolin-3-yl]acetamide] it is 8 nM.
Still for that read-out and setting: the value for `c1ccc2ncc(CNc3cc4cc(-c5cn[nH]c5)ccc4cn3)cc2c1` [Example 220, 6-(1H-pyrazol-4-yl)-N-(quinolin-3-ylmethyl)isoquinolin-3-amine] was 1930 nM.
Regarding `O=C(NCCCO)c1cccc2cnc(N[C@H]3CC[C@H](O)CC3)nc12` [Example 451, 2-[(trans-4-hydroxycyclohexyl)amino]-N-(3-hydroxypropyl)quinazoline-8-carboxamide], the affinity corresponds to a Ki of 166 nM.
`O=C(NCCC1CCCCO1)c1ccc2cnc(N[C@H]3CC[C@H](O)CC3)nc2c1` (stereo partly drawn) [Example 343, 2-[(trans-4-hydroxycyclohexyl)amino]-N-[2-(tetrahydro-2H-pyran-2-yl)ethyl]quinazoline-7-carboxamide] had an inhibitory constant (Ki) of 855 nM.
On the same count and under the same terms, the figure for `c1cc(CNc2cc3cc(-c4cn[nH]c4)ccc3cn2)cc(-n2cccn2)c1` [Example 224, 6-(1H-pyrazol-4-yl)-N-[3-(1H-pyrazol-1-yl)benzyl]isoquinolin-3-amine] is 3370 nM; for `CCNC(=O)c1cccc2cnc(N[C@H]3CC[C@H](O)CC3)nc12` [Example 118, N-ethyl-2-[(trans-4-hydroxycyclohexyl)amino]quinazoline-8-carboxamide] it is 222 nM; for `COc1ccc2cnc(N[C@H]3CC[C@H](O)CC3)nc2c1` [Example 145, trans-4-[(7-methoxyquinazolin-2-yl)amino]cyclohexanol] it is 123 nM.
Take `O=C(N[C@H](CO)c1ccccc1)c1ccc2cnc(NC3CCC3)nc2c1` [Example 392, 2-(cyclobutylamino)-N-[(1S)-2-hydroxy-1-phenylethyl]quinazoline-7-carboxamide]: affinity was put at a Ki of 385 nM.
Still for that read-out and setting: the value for `CS(=O)(=O)N[C@H]1CC[C@H](Nc2ncc3ccc(OC4CCOC4)cc3n2)CC1` (stereo partly drawn) [Example 162, N-(trans-4-{[7-(tetrahydrofuran-3-yloxy)quinazolin-2-yl]amino}cyclohexyl)methanesulfonamide] was 260 nM.
`O=C(NC(CO)c1ccccc1)c1ccc2cnc(N[C@H]3CC[C@H](O)CC3)nc2c1` (stereo partly drawn) [Example 326, 2-{(trans-4-hydroxycyclohexyl)amino]-N-(2-hydroxy-1-phenylethyl)quinazoline-7-carboxamide] registered an inhibition constant (Ki) of 193 nM. The Ki values of the last two compounds are within 1.5-fold of each other.
In turn, `CCC[C@@H](CO)NC(=O)c1ccc2cnc(NC(C)C)nc2c1` [Example 406, N-[(1S)-1-(hydroxymethyl)butyl]-2-(isopropylamino)quinazoline-7-carboxamide] had an inhibition constant (Ki) of 730 nM.
